Data as given in patent publication US20040039039A1, “Fungicidal mixtures” (priority 2003, published 2004).

Tested on: Plasmopara viticola
Experiment: Protective activity against Peronospora in grapevines caused by Plasmopara viticola
Format: in vivo
Details: individual active compound, potted vines
Procedure: The active compounds, separately or together, were formulated as a 10% emulsion in a mixture of 63% by weight of cyclohexanone and 27% by weight of emulsifier, and diluted with water to the desired concentration.
Evaluation was carried out by determining the infected leaf areas in percent. These percentages were converted into efficacies. The efficacy (W) was calculated as follows using Abbot's formula: […]
α corresponds to the fungal infection of the treated plants in % and β corresponds to the fungal infection of the untreated (control) plants in % An efficacy of 0 means that the infection level of the treated plants corresponds to that of the untreated control plants; an efficacy of 100 means that the treated plants were not infected.
The expected efficacies of the mixtures of the active compounds were determined using Colby's formula [R. S. Colby, Weeds 15, 20-22 (1967)] and compared with the observed efficacies.
Colby's formula: E=x+y−x·y/100
E expected efficacy, expressed in % of the untreated control, when using the mixture of the active compounds A and B at the concentrations a and b x efficacy, expressed in % of the untreated control, when using active compound A at a concentration a y efficacy, expressed in % of the untreated control, when using active compound B at a concentration b.
Protective Activity Against Peronospora in Grapevines Caused by Plasmopara viticola Leaves of potted vines of the cultivar “Müiller-Thurgau” were sprayed to runoff point with an aqueous preparation of active compound which had been prepared using a stock solution comprising 10% of active compound, 85% of cyclohexanone and 5% of emulsifier. The next day, the undersides of the leaves were inoculated with an aqueous zoospore suspension of Plasmopara viticola. The vines were then placed firstly for 48 hours in a water-vapor-saturated chamber at 24° C. and then for 5 days in a greenhouse at 20-30° C. After this period of time, the plants were again placed in a moist chamber for 16 hours to accelerate the sporangiophore eruption. The extent to which the undersides of the leaves had been infected was then determined visually.

Compound	Efficacy in % of the untreated control (5 ppm in the spray liquor) [%]	Efficacy in % of the untreated control (10 ppm in the spray liquor) [%]	Efficacy in % of the untreated control (0.05 ppm in the spray liquor) [%]	Efficacy in % of the untreated control (0.1 ppm in the spray liquor) [%]	Efficacy in % of the untreated control (0.2 ppm in the spray liquor) [%]
manganese ethylenebis(dithiocarbamate) (zinc complex) [IIa]	11	72	–	–	–
zinc ammoniate ethylenebis(dithiocarbamate) [IIc]	0	11	–	–	–
Cc1ccc(-c2c(Cl)nc(C#N)n2S(=O)(=O)N(C)C)cc1 [Ia, cyazofamid]	–	–	56	78	89
